Assay results from US20110195845A1, “Constructs for Expressing Herbicide Tolerance Genes, Related Plants, and Related Trait Combinations” (Dow AgroSciences LLC, priority 2008, published 2011).

Tests used:
[1] = system: Escherichia coli BL21-Star (DE3) with AtUbi10 promoter//DSM-2 (v2) (3778); test: Plant promoter driven complementation on glufosinate, plasmid 3778; format: cell-based; design: bacterial growth on minimal media: key: ++++ = Heavy Lawn Growth; +++ = Lawn Growth; ++ = Lots of Distinct Colonies; + = Scattered Colony Growth; settings: for bacterial growth on minimal media: 48 hrs @37 C
Experimental: Plasmid constructs in which the DSM-2 (v2) and PAT gene coding sequences were expressed, under either the viral promoters CsVMV or the plant promoter AtUbi10, were assayed for complementation on minimal media containing glufosinate. The plasmids 3778 (Rb7 MARv3//AtUbi10 promoter//DSM-2 (v2)//Atu Orf 1 3′UTR), 3779 (Rb7 MARv3//AtUbi10 promoter//PAT//Atu Orf 1 3′UTR), 3264 (CsVMV promoter//DSM-2//Atu Orf 24 3′UTR), 3037 (CsVMV promoter//PAT//Atu Orf 25/26 3′UTR), and 770 (control plasmid containing CsVMV promoter//GUS v3//Atu Orf 24 3′UTR) were transformed into Escherichia coli BL21-Star (DE3) and grown up in complex media. Five microliters of the cultures were plated on minimal media containing increasing concentrations of Glufosinate and incubated at 37° C. for 48 hours.

[2] = system: NT-1 tobacco suspension cells treated with DSM-2 (v2) (pDAB3778); test: NT-1 tobacco cell transformation, selection on bialaphos or glufosinate ammonium; format: cell-based
Experimental: Four days prior to transformation, a 1 week old NT-1 tobacco suspension, which was being subcultured every 7 days, was subcultured to fresh medium by adding 2 ml of the NT-1 culture or 1 ml of packed cells into 40 ml NT-1 B media. The subcultured suspension was maintained in the dark at 25±1° C. on a shaker at 125 rpm.
A 50% glycerol stock of Agrobacterium tumefaciens [strain LBA4404] harboring a binary vector of interest was used to initiate a liquid overnight culture by adding 20, 100, or 500 μl to 30 ml YEP liquid (10 g/L yeast extract, 10 g/L Peptone, 5 g/L NaCl, 0-10 g/L Sucrose) containing 50-100 mg/L spectinomycin. The bacterial culture was incubated in the dark at 28° C. in an incubator shaker at 150-250 rpm until the OD600 was 1.5+0.2. This took approximately 18-20 hrs.
For each vector tested, 20-70 mL of 4-day old suspension cells were transferred into a sterile vessel, to which 500-1750 μl of Agrobacterium suspension at the proper OD was added. To ensure a uniform mixture was achieved, the cells were pipetted up and down 5 times with a 10 ml wide-bore pipet. The uniform suspension was then drawn up into a 25 ml barrel of a repeat pipetter and 250 μl of the suspension was dispensed per well into 24-well plates, continuing until the suspension was exhausted. The well plates were wrapped in parafilm and cultured in the dark at 25±1° C. without shaking for a 3 day co-cultivation.
Following the co-cultivation, all excess liquid was removed from the individual wells with a 1 mL pipet tip, and remaining cells were resuspended in 1 ml NTC liquid (NT-1 B medium containing 500 mg/L carbenicillin, added after autoclaving). The contents of an individual well were dispersed across the entire surface of 100×25 mm selection plates using disposable transfer pipets. Selection media consisted of NTC media solidified with 8 g/l TC agar supplemented with 7.5 to 15 mg/L bialaphos or technical grade glufosinate ammonium, added after autoclaving. All selection plates, left unwrapped, were maintained in the dark at 28° C.
Putative transformants appeared as small clusters of callus on a background of dead, non-transformed cells. Calli were isolated approximately 2-6 weeks post-transformation. Each callus isolate was transferred to its own 60×20 mm plate containing the same selection medium and allowed to grow for approximately 2 weeks before being submitted for analysis.

[3] = system: Escherichia coli BL21-Star (DE3) expressing PAT (v3); test: Complementation of cell growth on glufosinate, pDAB4434 (PAT v3); format: cell-based; design: key: −− = No Growth; +++ = Distinct Colony Growth; settings: 24 hrs @28 C, 20 uM IPTG
From the text: A pET28a(+) expression plasmid containing PAT (v3) was constructed as a positive control. PAT (v3) was cloned as an NcoI-SacI fragment into corresponding restriction sites of pDAB779. Positive clones containing the PAT (v3) gene fragment were verified via restriction enzyme digestion. This construct was labeled as pDAB4434.
The plasmids, pDAB4434, pDAB4412, and an empty pET vector (control) were transformed into Escherichia coli BL21-Star (DE3) bacterial cells. Expression cultures were initiated with 10-200 freshly transformed colonies into 250 mL LB medium containing 50 μg/ml antibiotic and 75 μM IPTG (isopropyl-[…]). The cultures were grown at 28° C. for 24 hours at 180-200 rpm. Five microliters of the culture was inoculated onto a complex media control and minimal media containing incrementally increasing concentrations of glufosinate and 20 μM IPTG. The cultures were dispersed evenly over the plates and incubated at 28° C. for 24 hours.

E. coli BL21-Star (DE3) = test: Bacterial strain response to glufosinate on minimal media; format: cell-based, Escherichia coli; design: key to bacterial growth on minimal media: +++ = Heavy Lawn Growth; ++ = Light lawn growth; + = patchy lawn growth; −− = No Growth; settings: for bacterial growth on minimal media: 24 hrs @ 37 C
Experimental: Selected cell lines of Escherichia coli and Agrobacterium tumefaciens were inoculated on minimal media containing incrementally increasing concentrations of Glufosinate (BASTA). The cell lines; BL21-Star (DE3), Top10, DH5α, Agrobacterium tumefaciens C58, and Agrobacterium tumefaciens LBA4404s were initially grown up on complex media. The Escherichia coli strains were grown in LB and the Agrobacterium tumefaciens strains were grown in YEP. Five microliters of bacterial culture was inoculated and dispersed evenly onto minimal media plates containing various concentrations of glufosinate. The concentrations consisted of 0 μg/ml, 250 μg/ml, 500 μg/ml, 1000 μg/ml, 2000 μg/ml, and 4000 μg/ml of BASTA. In addition, the bacterial strains were inoculated onto a plate of complex media as a control—Agrobacterium tumefaciens strains were inoculated on YEP agar plates, and Escherichia coli strains were inoculated on LB agar plates. The plates containing the Escherichia coli strains were incubated at 37° C. for 24 hours. The plates containing the Agrobacterium tumefaciens strains were incubate at 25° C. for 48 hours. […] Table 7 illustrates the capability of the various strains to grow on minimal media containing glufosinate.

CP(=O)(O)CCC(N)C(=O)O (stereo not shown) [glufosinate]
bacterial growth on minimal media ([1]; 250 μg/ml BASTA): ++++
bacterial growth on minimal media ([1]; 500 μg/ml BASTA): +++
bacterial growth on minimal media ([1]; 1000 μg/ml BASTA): +++
bacterial growth on minimal media ([1]; 2000 μg/ml BASTA): ++
bacterial growth on minimal media ([1]; 4000 μg/ml BASTA): ++
concentration in minimal media to which promoter-driven DSM-2 provided resistance ([1]; At Ubi10 promoter, minimal media): 200 µg/mL
Transformation frequency (% of selection plates producing at least one callus) after coding region PCR ([2]; 7.5 mg/L selection agent): 55.6%
Transformation frequency (% of selection plates producing at least one callus) after coding region PCR ([2]; 10 mg/L selection agent): 50.0%
Transformation frequency (% of selection plates producing at least one callus) after coding region PCR ([2]; 12.5 mg/L selection agent): 44.4%
Transformation frequency (% of selection plates producing at least one callus) after coding region PCR ([2]; 15 mg/L selection agent): 38.9%
bacterial growth on minimal media ([3]; 250 μg/ml BASTA): +++
bacterial growth on minimal media ([3]; 500 μg/ml BASTA): +++
bacterial growth on minimal media ([3]; 1000 μg/ml BASTA): +++
bacterial growth on minimal media ([3]; 2000 μg/ml BASTA): +++
bacterial growth on minimal media ([3]; 4000 μg/ml BASTA): +++
bacterial growth on minimal media (E. coli BL21-Star (DE3); 250 μg/ml BASTA): −−
bacterial growth on minimal media (E. coli BL21-Star (DE3); 500 μg/ml BASTA): −−
bacterial growth on minimal media (E. coli BL21-Star (DE3); 1000 μg/ml BASTA): −−
bacterial growth on minimal media (E. coli BL21-Star (DE3); 2000 μg/ml BASTA): −−
bacterial growth on minimal media (E. coli BL21-Star (DE3); 4000 μg/ml BASTA): −−
concentration in minimal media at which the cell line was inhibited (E. coli BL21-Star (DE3); minimal media): 100 µg/mL
inhibition of strain by glufosinate (E. coli BL21-Star (DE3); minimal media, 250-4000 μg/ml BASTA): substantially inhibited
